Data reported in patent US20240050385A1, “METHODS OF TREATING LEPTOMENINGEAL METASTASIS” (MEMORIAL SLOAN-KETTERING CANCER CENTER, priority 2020, published 2024).

Assays:
LCN2 = LCN2 ELISA after recombinant cytokine stimulation; type: cell-based; conditions: recombinant cytokine added to artificial CSF; PC9, MDA231 or LLC LeptoM cells; ELISA at 48 h
Method: FIG. 11A-11E. Proinflammatory cytokines in human CSF. (A) LCN2 was quantified by ELISA in the CSF from patients harboring LM was treated with neutralizing antibody against IL-6 or IL-8 and added to MDA231-LeptoM cells for 12 hours. N=3 in each of two independent experiments. NS=not significant, * indicates p<0.05, ** indicates p<0.01, *** indicates p<0.001 (unpaired t test). Data represent mean±SEM. (B) Evaluation of LCN2 expression by ELISA with the treatment of pro-inflammatory cytokines IL-6, IL-8, IL-1β and TNF in PC9-Par and PC9-LeptoM cells. LCN2 expression was determined by ELISA of conditioned media collected 48 hours after recombinant cytokine stimulation. N=3 in each of two independent experiments. *indicates p<0.05 (unpaired t test). Data represent mean±SEM. (C) LCN2 expression by ELISA 48 h after treatment of MDA-Par and MDA-LeptoM cells with IL-6, IL-8, IL-1β and TNF. LCN2 expression by ELISA in conditioned media for 48 hours after recombinant cytokines stimulation. N=3 in each of two independent experiments. *indicates p<0.05 (unpaired t test). Data represent mean±SEM. (D) LCN2 expression by ELISA 48 h after treatment of LLC-Par and LLC-LeptoM cells with IL-6, IL-1β and TNF. N=3 in each of two independent experiments. * indicates p<0.05 (unpaired t test). Data represent mean±SEM. (E) Visualization of macrophage cells in first two diffusion components. First diffusion component is best matched by Hypoxia as indicated with GSEA es=0.6, fdr=0 and M1 phenotype es=−0.5, fdr=0.11, while second diffusion component is best matched by M2 phenotype es=0.7, fdr=0. MAGIC imputed gene set expression was standardized to zero mean and unit of standard deviation.
Secreted protein detection. Human LCN2 (Abcam, ab215541), Hepcidin (R&D, DHP250), Transferrin (Abcam, ab187391), Ferritin (LSBio, LS-F428-1), IL-6 (R&D, D6050), IL-8 (R&D, D8000C), IL-1β (R&D, DLB50), TNF expression (Abcam, ab181421) in CSF patient samples or cell culture supernatants were measured using ELISA kits according to manufacturer's instructions. […]

PC9-LeptoM cells = assay: Cell associated iron and viability of PC9-LeptoM cells after knockdown of SLC22A17 or LCN2; type: cell-based, human; conditions: 100 μg/mL diferric Tf added in vitro
Source text: (§1) FIG. 14A-14K. Leptomeningeal metastasis requires iron transporters. (A) Total iron measured by mass spectroscopy in CSF cancer patients with and without LM. Presence of LM is indicated +/−. N=11 cancer patients without LM and n=12 cancer patients with LM. * indicates p<0.05 (unpaired t test). Data represent mean±SEM. (B) LCN2 iron binding assay in patient CSF. Non-LCN2-bound iron [NLBI] and LCN2-bound iron [LBI] was detected in the CSF from cancer patients with or without LM. N=10. **** indicates p<0.0001 (unpaired t test). Data represent mean±SEM. (C) Expression of genes associated with iron transport in parental cells and LeptoM cells by bulk RNA sequencing. N=2 in PC9 cells and n=3 in LeptoM cells. Presented as log 2 fold change in each group with cutoff <20 normalized counts. (D) Tumor growth in mice injected with PC9-LeptoM cells expressing shCtl or shLCN2. Treatment with either vehicle or 5 mg/Ml holo-transferrin (diferric [Tf]) was commenced on day 1 and continued every third day for a total of 7 doses. Left: Histogram represents in vivo BLI imaging post-inoculation at day 21. […] Iron measured by colorimetric assay. […] Intracellular iron was determined by colorimetric assay. […]
Cell Viability Assay. […] The CellTiter-Glo Luminescent Cell Viability Assay (Promega G9241) was used to quantify viable cells in culture according to the manufacturer's protocols. […]

[1] = tested on: LeptoM cells expressing shLCN2; assay: Tumor growth in mice injected with LeptoM cells expressing shLCN2, treated with holo-transferrin; type: in vivo, mouse; conditions: 5 mg/mL holo-transferrin intracisternal every third day, 7 doses
Source text: as §1, with “21. N=6-8 per group in each of two independent experiments. Right: Representative BLI images. Sh1+Veh vs sh1+Tf, p=0.2087. sh2+Veh vs sh2+Tf, p=0.0604. Data represent mean±SEM.” for “21.”

| Substance | expression of LCN2 (LCN2) | cell growth after SLC22A17 or LCN2 knockdown (PC9-LeptoM cells) | intracellular iron accumulation after SLC22A17 or LCN2 knockdown (PC9-LeptoM cells) | rescue of LCN2 knockdown by shRNA in vivo (tumor growth, survival) [1] |
| --- | --- | --- | --- | --- |
| IL-1β: recombinant IL-1β (R&D) added to culture media | induced expression of LCN2 | – | – | – |
| IL-6: recombinant IL-6 (R&D) added to culture media | induced expression of LCN2 | – | – | – |
| IL-8: recombinant IL-8 (R&D) added to culture media | induced expression of LCN2 | – | – | – |
| transferrin: iron-loaded (diferric) holo-transferrin, Invitria 777TRF029 | – | rescued | rescued | partially rescued |
